# Tested on: 422866-222-R5-J1-PDC complex spheroid viability
# Assay: Anticancer human tumor 422866-222-R5-J1-PDC patient-derived pancreatic adenocarcinoma cell line growth inhibition [POLQ]
# Conditions: for IC50: curve of first compound; for viability, T/C: stronger effect = lower value
# Summary of the method: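 Growth inhibition in 3D: complex spheroids (tumor PDC, HUVEC, MSC) treated with POLQ inhibitor combinations; where Cmax unknown, highest tested concentration 10 microM, except SN-38 at 1 microM.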
# [1] = second compound 0.0316 µM, first compound 0.0316 µM
# [2] = second compound 0.0316 µM, first compound 0.1 µM
# [3] = second compound 0.0316 µM, first compound 0.316 µM
# [4] = second compound 0.0316 µM, first compound 1 µM
# [5] = second compound 0.0316 µM, first compound 3.16 µM
# [6] = second compound 0.0316 µM, first compound 10 µM
# [7] = second compound 0.1 µM, first compound 0.0316 µM
# [8] = second compound 0.1 µM, first compound 0.1 µM
# [9] = second compound 0.1 µM, first compound 0.316 µM
# [10] = second compound 0.1 µM, first compound 1 µM
# [11] = second compound 0.1 µM, first compound 3.16 µM
# [12] = second compound 0.1 µM, first compound 10 µM
# [13] = second compound 0.316 µM, first compound 0.0316 µM
# [14] = second compound 0.316 µM, first compound 0.1 µM
# [15] = second compound 0.316 µM, first compound 0.316 µM
# [16] = second compound 0.316 µM, first compound 1 µM
# [17] = second compound 0.316 µM, first compound 3.16 µM
# [18] = second compound 0.316 µM, first compound 10 µM
# [19] = second compound 1 µM, first compound 0.0316 µM
# [20] = second compound 1 µM, first compound 0.1 µM
# [21] = second compound 1 µM, first compound 0.316 µM
# [22] = second compound 1 µM, first compound 1 µM
# [23] = second compound 1 µM, first compound 3.16 µM
# [24] = second compound 1 µM, first compound 10 µM
# [25] = second compound 3.16 µM, first compound 0.0316 µM
# [26] = second compound 3.16 µM, first compound 0.1 µM
# [27] = second compound 3.16 µM, first compound 0.316 µM
# [28] = second compound 3.16 µM, first compound 1 µM
# [29] = second compound 3.16 µM, first compound 3.16 µM
# [30] = second compound 3.16 µM, first compound 10 µM
# [31] = second compound 10 µM, first compound 0.0316 µM
# [32] = second compound 10 µM, first compound 0.1 µM
# [33] = second compound 10 µM, first compound 0.316 µM
# [34] = second compound 10 µM, first compound 1 µM
# [35] = second compound 10 µM, first compound 3.16 µM
# [36] = second compound 10 µM, first compound 10 µM
# 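Note: spheroids exposed to compounds for one week before readout.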
# 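Throughout, for viability, T/C: percent of DMSO vehicle wells luminescence so 100% = untreated viability.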
smiles,measurement,setting,value
CCc1cc2c(N3CCc4c(cc(Cn5ccnc5)cc4-c4cn(C)nc4C(F)(F)F)C3=O)cc(C)nc2c(OC)n1 + Nc1ccc(C#CCN(C(=O)Cc2ncc(C(F)(F)F)cc2C(F)(F)F)c2ccc(F)cc2)nn1,IC50,second compound 0.0316 µM,> 10000 nM
same,IC50,second compound 0.1 µM,> 10000 nM
same,IC50,second compound 0.316 µM,> 10000 nM
same,IC50,second compound 1 µM,> 10000 nM
same,IC50,second compound 3.16 µM,> 10000 nM
same,IC50,second compound 10 µM,> 10000 nM
same,"viability, T/C",[1],79.3%
same,"viability, T/C",[2],88.6%
same,"viability, T/C",[3],96%
same,"viability, T/C",[4],115%
same,"viability, T/C",[5],103%
same,"viability, T/C",[6],95.5%
same,"viability, T/C",[7],105%
same,"viability, T/C",[8],97.4%
same,"viability, T/C",[9],102%
same,"viability, T/C",[10],87.1%
same,"viability, T/C",[11],98.7%
same,"viability, T/C",[12],99.7%
same,"viability, T/C",[13],99.5%
same,"viability, T/C",[14],86.3%
same,"viability, T/C",[15],94.8%
same,"viability, T/C",[16],88.3%
same,"viability, T/C",[17],118%
same,"viability, T/C",[18],100%
same,"viability, T/C",[19],95.6%
same,"viability, T/C",[20],75%
same,"viability, T/C",[21],87.7%
same,"viability, T/C",[22],99.7%
same,"viability, T/C",[23],94.9%
same,"viability, T/C",[24],96.2%
same,"viability, T/C",[25],81.2%
same,"viability, T/C",[26],93.6%
same,"viability, T/C",[27],95.2%
same,"viability, T/C",[28],99.2%
same,"viability, T/C",[29],122%
same,"viability, T/C",[30],107%
same,"viability, T/C",[31],102%
same,"viability, T/C",[32],112%
same,"viability, T/C",[33],106%
same,"viability, T/C",[34],83.7%
same,"viability, T/C",[35],102%
same,"viability, T/C",[36],113%
O=c1[nH]cc(F)c(=O)[nH]1 + Nc1ccc(C#CCN(C(=O)Cc2ncc(C(F)(F)F)cc2C(F)(F)F)c2ccc(F)cc2)nn1,IC50,second compound 0.0316 µM,> 10000 nM
same,IC50,second compound 0.1 µM,> 10000 nM
same,IC50,second compound 0.316 µM,> 10000 nM
same,IC50,second compound 1 µM,> 10000 nM
same,IC50,second compound 3.16 µM,> 10000 nM
same,IC50,second compound 10 µM,> 10000 nM
same,"viability, T/C",[1],108%
same,"viability, T/C",[2],102%
same,"viability, T/C",[3],89.4%
same,"viability, T/C",[4],88.2%
same,"viability, T/C",[5],89.1%
same,"viability, T/C",[6],79.3%
same,"viability, T/C",[7],113%
same,"viability, T/C",[8],90.9%
same,"viability, T/C",[9],92.4%
same,"viability, T/C",[10],96.2%
same,"viability, T/C",[11],83.2%
same,"viability, T/C",[12],76.7%
same,"viability, T/C",[13],99.2%
same,"viability, T/C",[14],106%
same,"viability, T/C",[15],100%
same,"viability, T/C",[16],93.4%
same,"viability, T/C",[17],75.9%
same,"viability, T/C",[18],84.7%
same,"viability, T/C",[19],101%
same,"viability, T/C",[20],111%
same,"viability, T/C",[21],108%
same,"viability, T/C",[22],92.4%
same,"viability, T/C",[23],90.1%
same,"viability, T/C",[24],83.4%
same,"viability, T/C",[25],95%
same,"viability, T/C",[26],132%
same,"viability, T/C",[27],102%
same,"viability, T/C",[28],104%
same,"viability, T/C",[29],88.3%
same,"viability, T/C",[30],82.6%
same,"viability, T/C",[31],101%
same,"viability, T/C",[32],118%
same,"viability, T/C",[33],97.1%
same,"viability, T/C",[34],100%
same,"viability, T/C",[35],78.3%
same,"viability, T/C",[36],83.8%
C#Cc1c(F)ccc2cc(O)cc(-c3ncc4c(N5CC6CCC(C5)N6)nc(OCC56CCCN5CC(F)C6)nc4c3F)c12 (stereo not drawn) + COC1C(OC(N)=O)C(O)C(Oc2ccc3c(O)c(NC(=O)c4ccc(O)c(CC=C(C)C)c4)c(=O)oc3c2C)OC1(C)C,IC50,second compound 0.0316 µM,715 nM
same,IC50,second compound 0.1 µM,780 nM
same,IC50,second compound 0.316 µM,750 nM
same,IC50,second compound 1 µM,859 nM
same,IC50,second compound 3.16 µM,664 nM
same,IC50,second compound 10 µM,810 nM
same,"viability, T/C",[1],95.7%
same,"viability, T/C",[2],78.9%
same,"viability, T/C",[3],59.6%
same,"viability, T/C",[4],46.2%
same,"viability, T/C",[5],35.9%
same,"viability, T/C",[6],29.8%
same,"viability, T/C",[7],92.5%
same,"viability, T/C",[8],86.3%
same,"viability, T/C",[9],66.5%
same,"viability, T/C",[10],46.1%
same,"viability, T/C",[11],34.2%
same,"viability, T/C",[12],32.8%
same,"viability, T/C",[13],99.5%
same,"viability, T/C",[14],85.8%
same,"viability, T/C",[15],66.2%
same,"viability, T/C",[16],45.2%
same,"viability, T/C",[17],31.4%
same,"viability, T/C",[18],28.8%
same,"viability, T/C",[19],106%
same,"viability, T/C",[20],102%
same,"viability, T/C",[21],73.4%
same,"viability, T/C",[22],46.9%
same,"viability, T/C",[23],37%
same,"viability, T/C",[24],32%
same,"viability, T/C",[25],93.3%
same,"viability, T/C",[26],93.9%
same,"viability, T/C",[27],67.1%
same,"viability, T/C",[28],40.9%
same,"viability, T/C",[29],36.9%
same,"viability, T/C",[30],30.3%
same,"viability, T/C",[31],96.1%
same,"viability, T/C",[32],86.1%
same,"viability, T/C",[33],64.7%
same,"viability, T/C",[34],47.6%
same,"viability, T/C",[35],33.7%
same,"viability, T/C",[36],29.4%
COc1cccc(OCCCN)c1-c1cc(Nc2cnc(C#N)cn2)n[nH]1 + Nc1ccc(C#CCN(C(=O)Cc2ncc(C(F)(F)F)cc2C(F)(F)F)c2ccc(F)cc2)nn1,IC50,second compound 0.0316 µM,7.22 nM
same,IC50,second compound 0.1 µM,6.75 nM
same,IC50,second compound 0.316 µM,5.8 nM
same,IC50,second compound 1 µM,5.89 nM
same,IC50,second compound 3.16 µM,5.87 nM
same,IC50,second compound 10 µM,7.34 nM
same,"viability, T/C","second compound 0.0316 µM, first compound 0.00316 µM",82.4%
same,"viability, T/C","second compound 0.0316 µM, first compound 0.01 µM",37.4%
same,"viability, T/C",[1],33.4%
same,"viability, T/C",[2],30.5%
same,"viability, T/C",[3],35.9%
same,"viability, T/C",[4],44.1%
same,"viability, T/C","second compound 0.1 µM, first compound 0.00316 µM",62.6%
same,"viability, T/C","second compound 0.1 µM, first compound 0.01 µM",45.9%
same,"viability, T/C",[7],33.6%
same,"viability, T/C",[8],32.8%
same,"viability, T/C",[9],36.8%
same,"viability, T/C",[10],54.3%
same,"viability, T/C","second compound 0.316 µM, first compound 0.00316 µM",60.3%
same,"viability, T/C","second compound 0.316 µM, first compound 0.01 µM",40.4%
same,"viability, T/C",[13],36.1%
same,"viability, T/C",[14],38.4%
same,"viability, T/C",[15],27.1%
same,"viability, T/C",[16],38%
same,"viability, T/C","second compound 1 µM, first compound 0.00316 µM",68.9%
same,"viability, T/C","second compound 1 µM, first compound 0.01 µM",33.9%
same,"viability, T/C",[19],35%
same,"viability, T/C",[20],38.6%
same,"viability, T/C",[21],30.6%
same,"viability, T/C",[22],29.4%
same,"viability, T/C","second compound 3.16 µM, first compound 0.00316 µM",59.2%
same,"viability, T/C","second compound 3.16 µM, first compound 0.01 µM",42.8%
same,"viability, T/C",[25],38.5%
same,"viability, T/C",[26],29%
same,"viability, T/C",[27],32.2%
same,"viability, T/C",[28],44.8%
same,"viability, T/C","second compound 10 µM, first compound 0.00316 µM",76.1%
same,"viability, T/C","second compound 10 µM, first compound 0.01 µM",40.1%
same,"viability, T/C",[31],37.4%
same,"viability, T/C",[32],36.5%
same,"viability, T/C",[33],29%
same,"viability, T/C",[34],38.6%

# Source: PubChem BioAssay AID1963844 (Molecular Pharmacology Branch, DTP, NCI, 2024)
